Measured values from patent publication US7314858B2, “Retrocyclins: antiviral and antimicrobial peptides” (priority 2001, dated 2008).
Positions count from the first letter of the chain named. Entries after “also recorded” stand apart in the source; their conditions may differ.

B1: RTD-2: rhesus circular minidefensin, homodimer of two identical nonapeptide elements (SEQ ID NO:17) (peptide, listed as Macaca mulatta)
chain: MRTFALLTAMLLLVALHAQAEARQARADEAAAQQQPGADDQGMAHSFTRPENAALPLSESARGLRCLCRRGVCQLL
modifications: cyclic homodimer of two nonapeptides; SIGNAL (1)...(20)
B2: RTD-3: rhesus circular minidefensin, homodimer of two identical nonapeptide elements (SEQ ID NO:15) (peptide, listed as Macaca mulatta)
chain: B1 chain with A38T, R49W, R62K, L67I, R69T, V72F, Q74R
modifications: cyclic homodimer of two nonapeptides; SIGNAL (1)...(20)

Columns and labels:
HIV-1 strain IIIB [1] = test: HIV-1 IIIB infection of CD4+ PBMC, p24 antigen ELISA; format: cell-based; settings: CD4+ PBMC, IIIB (X4), peptide 10-20 μg/ml
Experimental: FIG. 5A-C. Anti-HIV-1 activity of retrocyclin. Two strains of HIV-1 and two types of human target cells were used. The IIIB strain is T-cell tropic (X4) and utilizes the CXCR4 co-receptor for entry; the JR-CSF strain is M-tropic (R5) and uses CCR5 for entry. PBMC signifies CD4^+-selected peripheral blood mononuclear cells. […] (A) Two concentrations of retrocyclin (2 μg/ml, 20 μg/ml), 20 μg/ml of the Rhesus circular defensin “RTD-1”, and 20 μg/ml of a horseshoe crab-derived peptide “T140”, reported to only prevent X4 infections, were tested in antiviral assays of against strain IIIB in H9 cells (n=2-6 per peptide; error bars indicate SEM). (B) To confirm our results with primary human cells, similar assays were performed utilizing IIIB virus and CD4^+ PBMC or (C) JR-CSF virus and CD4^+ PBMC. […] Average of duplicate experiments are reported for studies with PBMCs. Assay sensitivity=10 pg/ml.
Either HIV-1-permissive H9 cells were used as targets, or primary CD4^+ lymphocytes from HIV-1-seronegative donors generated from freshly purified peripheral blood mononuclear cells (PBMC) stimulated with a CD3-CD8 bispecific monoclonal antibody. […] These cells were maintained in RPMI containing 10% FCS supplemented with 2 mM glutamine, 100 U of penicillin/ml, 10 μg of streptomycin/ml, and 50 U of interleukin 2/ml (R10-50 media).
Examining the effect of adding retrocyclin at various times pre- and post-HIV-1 infection. […] Primary CD4^+ PBMC were incubated with HIV-IIIB (FIG. 6) or HIV-JR-CSF for 3 hours in the presence or absence of 20 μg/ml retrocyclin. The cells were subsequently washed in media, and incubated an additional 9 days. Retrocyclin (20 μg/ml) was added back to some of the cultures at time points specified in FIG. 6 and infection was monitored by p24 ELISA as previously described. […]

HIV-1 strain JR-CSF = test: HIV-1 JR-CSF infection of CD4+ PBMC, p24 antigen ELISA; format: cell-based; settings: JR-CSF (R5), peptide 10-20 μg/ml
Experimental: FIG. 5A-C. Anti-HIV-1 activity of retrocyclin. Two strains of HIV-1 and two types of human target cells were used. The IIIB strain is T-cell tropic (X4) and utilizes the CXCR4 co-receptor for entry; the JR-CSF strain is M-tropic (R5) and uses CCR5 for entry. PBMC signifies CD4^+-selected peripheral blood mononuclear cells. […] (A) Two concentrations of retrocyclin (2 μg/ml, 20 μg/ml), 20 μg/ml of the Rhesus circular defensin “RTD-1”, and 20 μg/ml of a horseshoe crab-derived peptide “T140”, reported to only prevent X4 infections, were tested in antiviral assays of against strain IIIB in H9 cells (n=2-6 per peptide; error bars indicate SEM). (B) To confirm our results with primary human cells, similar assays were performed utilizing IIIB virus and CD4^+ PBMC or (C) JR-CSF virus and CD4^+ PBMC. Peptides were not cytotoxic at indicated concentrations, measured by trypan blue exclusion. Average of duplicate experiments are reported for studies with PBMCs. Assay sensitivity=10 pg/ml.
(§1) Either HIV-1-permissive H9 cells were used as targets, or primary CD4^+ lymphocytes from HIV-1-seronegative donors generated from freshly purified peripheral blood mononuclear cells (PBMC) stimulated with a CD3-CD8 bispecific monoclonal antibody. After approximately 7 days, when 98% of these cells co-expressed CD3 and CD4, they were infected with HIV-1 with or without retrocyclin or other test peptide. These cells were maintained in RPMI containing 10% FCS supplemented with 2 mM glutamine, 100 U of penicillin/ml, 10 μg of streptomycin/ml, and 50 U of interleukin 2/ml (R10-50 media).
The p24 assay results shown in FIG. 9 are on a logarithmic scale. A horizontal reference line that passes through 100 on the ordinate scale corresponds to […] of p24 antigen. Results from 3 experiments (each performed with PBMC from a different donor) are shown.

HSV-2 = test: HSV inactivation microplate assay on ME-180 cells (MTT); format: cell-based; settings: 2-50 μg/ml, 2 hrs with virus, 72 hrs culture
Experimental: FIG. 14. Inactivation of HSV-1 and HSV-2 by retrocyclin and RC-101. Retrocyclin (left panel) and RC-101 (right panel) at the indicated concentrations were incubated with herpes simplex virus, type 1 (HSV-1) or HSV-2 for 2 hrs and then added to ME-180 cell monolayers. Cells were incubated at 37° C. for 72 hrs, and cytotoxicity was measured with an MTT kit.
Some retrocyclins are slightly active against herpes simplex virus (HSV). To determine if the activity of retrocyclin against HIV-1 was specific or representative of a more global antiviral effect, it was tested its ability to prevent HSV infection in vitro. A quantitative microplate assay was used to screen retrocyclin and retrocyclin-congeners for their ability to inactivate HSV type 1 (HSV-1) and HSV-2. The assay utilized small amounts of peptide and simultaneously evaluated for peptide-induced cytotoxicity. In brief, final peptide concentrations of 2-50 μg/ml were incubated with virus stocks for 2 hrs and added directly to ME-180 human cervical carcinoma cells. Cultures were incubated at 37° C. for 72 hrs and cytotoxicity was measured using a 3-(4,5-dimethylthiazon-2-yl)-2,5-diphenyltetrazolium bromide (MTT) cell proliferation kit (Boehringer-Mannheim, Germany). Calculations to assess antiviral activity and compute “percent protection” are delineated in (90).

primary HIV-1 isolates = settings: previous assays; included as negative control
Source text: Viral isolates. Primary HIV-1 isolates were obtained from Institutional Review Board-approved Centers for Disease Control and Prevention (CDC) Studies or from the National Institutes of Health Research and Reference Reagent Program and World Health Organization collaborative network. Detailed characteristics of the CDC isolates, including subtype determination based on the envelope region, and co-receptor usage using GHOST cell lines have been described elsewhere. For viruses obtained from the NIH Research and Reference Reagent Program, the reported subtype and co-receptor data were used as supplied. Viral stocks were generated by infecting CD8-depleted normal human peripheral blood mononuclear cells. After filtration through 0.22-μm filters, aliquots of the stocks were stored at −70° C. until used.
Reporter gene-based viral replication assay. JC53-BL cells, an HIV-1 reporter cell line derived from HeLa cells that expresses high levels of CD4 and the HIV co-receptors CXCR4 and CCR5, were a gift of Tranzyme Inc. (Birmingham, Ala.). The JC53-BL cells contain cassettes for luciferase and β-galactosidase, each driven by the HIV-1 LTR. HIV infection (tat production) can be detected either by measuring luciferase activity or by counting blue foci after staining the cells with “X-Gal” (5-Bromo-4-chloro-3-indolyl β-D-galactopyranoside), as described elsewhere in detail. The JC53-BL cells were maintained in Dulbecco's modified Eagle medium supplemented with 10% fetal calf serum. (HyClone, Logan, Utah), 2 mM glutamine (Gibco), 100 units per ml penicillin G and 100 μg/ml streptomycin (GIBCO™, Invitrogen Corp., San Diego, Calif.). Viral titers were determined by adding serial dilutions of the virus stocks, in triplicate, to wells containing 20,000 JC53-BL cells, after supplementing the above medium with 40 μg/ml DEAE (diethylaminoethyl)-dextran. After a 48 hour incubation at 37° C. in 5% CO2, the cells were fixed and stained for β galactosidase, and the blue foci were counted with a light microscope. Multiplicity of infection (MOI) values were taken from the infectious unit data.
In vitro infections were carried out in the presence or absence of θ-defensin peptides. Briefly, JC53-BL cells were harvested from T-150 flasks approximately 18 hours prior to starting the assay with 0.1 mM EDTA in 0.017 M PBS, pH 7.4. The cells were washed and transferred to sterile white 96-well plates (Thermo Labsystems, Franklin, Mass.) at a density of 20,000 cells in 50 μl of medium. […] After this 3-hour preincubation with peptides, viruses were added in media containing 40 μg/ml DEAE-dextran. The final volume was 200 μl per well, and the multiplicity of infection (viruses/cell) ranged from 0.009 to 0.65. After the plates had incubated at 37° C. in 5% CO2 for 48 hours, luciferase activity was measured with the Steady-Glo Luciferase Assay System (Promega, Madison, Wis.), using the manufacturer's lysis protocol. Relative light intensity was measured with a Tecan luminometer running Magellan software (Tecan, Research Triangle Park, N.C.) and reported as relative light units (RLU). Each plate contained three sets of quadruplicate controls: media-only (background), virus-only (peptide-free), and recombinant luciferase. Samples were run in duplicate and the % inhibition was calculated from the mean values using the formula: % Inhibition=1−(average RLU peptide+virus wells/average RLU virus only wells)×100.
Fifty-percent inhibitory concentration values (IC50) were calculated using the predicted exponential growth function in Microsoft Excel, which uses known x-y values to estimate a given x value (in this case concentration of peptide) that would correspond to a given y value (in this case IC50). Statistical comparisons were by paired t-tests, unless otherwise noted.

HIV-1 strain IIIB [2] = test: HIV-1 IIIB infection of H9 cells, p24 antigen ELISA; format: cell-based; settings: H9 cells, IIIB (X4), peptide 10-20 μg/ml
Experimental: FIG. 1. Circular minidefensins reduce HIV-1 infection of H9 cells. HIV-I strain IIIB (MOI=10^−2) was incubated with 2.5×10^5 H9 cells in the presence or absence of 20 μg/ml RTD-1, RTD-2 or RTD-3. p24 antigen release was monitored by ELISA on days 3, 6, and 9. Assay sensitivity=10 pg/ml.
Immortalized CD4^+ H9 cells, which are permissive for infection with this strain, were maintained in RPMI supplemented with 10% heat-inactivated fetal calf serum (FCS), 10 mM HEPES, 2 mM glutamine, 100 U of penicillin/ml, and 10 μg of streptomycin/ml (R10 media). Cells (2.5×10^5/100 μl) were incubated with virus (multiplicity of infection (MOI)=10^−2) in the presence or absence of 20 μg/ml RTD-1, RTD-2 or RTD-3 for 3 hrs at 37° C./5% CO2. The cells were washed in R10 media, seeded in 48-well tissue culture plates in 1 ml R10 media, and incubated at 37° C./5% CO2 for 9 days. Aliquots of cell supernatant were removed at the specified time points and analyzed by a sensitive ELISA (DuPont NEN) that quantitates p24 antigen of HIV-1. The three circular rhesus minidefensins were similarly active, inhibiting HIV-1 by 100-1000 fold by 9 days post-inoculation (note the logarithmic scale).
as §1
Mature retrocyclin was prepared by a three-step process.

Molecule | inhibition of HIV-1 replication (p24) (HIV-1 strain IIIB [1]) | inhibition of HIV-1 replication (p24) (HIV-1 strain JR-CSF) | protection against HSV-2 (HSV-2) | anti-HIV activity (primary HIV-1 isolates) | inhibition of HIV-1 replication (p24) (HIV-1 strain IIIB [2])
I6Y-Retrocyclin (cyclo(GICRCYCGRGICRCICGR); disulfide (positions not given here); ring closure inferred; not fully specified (bridges)) [RC-102, cyclic …] | either inactive or only modestly active; also recorded: relatively ineffective | considerable ability to protect cells; also recorded: substantial activity | less antiviral than retrocyclin | – | –
I15Y-Retrocyclin (cyclo(GICRCICGRGICRCYCGR); disulfide (positions not given here); ring closure inferred; not fully specified (bridges)) [RC-103] | either inactive or only modestly active; also recorded: relatively ineffective | considerable ability to protect cells; also recorded: substantial activity | less antiviral than retrocyclin | – | –
R4Y-Retrocyclin [RC-106] | either inactive or only modestly active; also recorded: lack of efficacy | lack of efficacy | – | little or no anti-HIV activity | –
R13Y-Retrocyclin (cyclo(GICICICGRGICYCICGR); disulfide (positions not given here); ring closure inferred; not fully specified (bridges)) [RC-108] | either inactive or only modestly active; also recorded: lack of efficacy | lack of efficacy | – | – | –
B1 | – | – | – | – | protective to a lesser extent than retrocyclin
B2 | – | – | – | – | protective to a lesser extent than retrocyclin
